# From patent US20250177396A1, “POLO-LIKE KINASE 4 (PLK4) INHIBITORS, PHARMACEUTICAL COMPOSITIONS, METHODS OF PREPARATION AND USES THEREOF” (Repare Therapeutics Inc., priority 2022, published 2025)
# Molecular target: T1, PLK4 (Homo sapiens, UniProt O00444)
# T1 construct: expressed in transfected cells; host or cells: HEK293 T cells (ATCC CRL-3216)
# T1 sequence (O00444 1-970): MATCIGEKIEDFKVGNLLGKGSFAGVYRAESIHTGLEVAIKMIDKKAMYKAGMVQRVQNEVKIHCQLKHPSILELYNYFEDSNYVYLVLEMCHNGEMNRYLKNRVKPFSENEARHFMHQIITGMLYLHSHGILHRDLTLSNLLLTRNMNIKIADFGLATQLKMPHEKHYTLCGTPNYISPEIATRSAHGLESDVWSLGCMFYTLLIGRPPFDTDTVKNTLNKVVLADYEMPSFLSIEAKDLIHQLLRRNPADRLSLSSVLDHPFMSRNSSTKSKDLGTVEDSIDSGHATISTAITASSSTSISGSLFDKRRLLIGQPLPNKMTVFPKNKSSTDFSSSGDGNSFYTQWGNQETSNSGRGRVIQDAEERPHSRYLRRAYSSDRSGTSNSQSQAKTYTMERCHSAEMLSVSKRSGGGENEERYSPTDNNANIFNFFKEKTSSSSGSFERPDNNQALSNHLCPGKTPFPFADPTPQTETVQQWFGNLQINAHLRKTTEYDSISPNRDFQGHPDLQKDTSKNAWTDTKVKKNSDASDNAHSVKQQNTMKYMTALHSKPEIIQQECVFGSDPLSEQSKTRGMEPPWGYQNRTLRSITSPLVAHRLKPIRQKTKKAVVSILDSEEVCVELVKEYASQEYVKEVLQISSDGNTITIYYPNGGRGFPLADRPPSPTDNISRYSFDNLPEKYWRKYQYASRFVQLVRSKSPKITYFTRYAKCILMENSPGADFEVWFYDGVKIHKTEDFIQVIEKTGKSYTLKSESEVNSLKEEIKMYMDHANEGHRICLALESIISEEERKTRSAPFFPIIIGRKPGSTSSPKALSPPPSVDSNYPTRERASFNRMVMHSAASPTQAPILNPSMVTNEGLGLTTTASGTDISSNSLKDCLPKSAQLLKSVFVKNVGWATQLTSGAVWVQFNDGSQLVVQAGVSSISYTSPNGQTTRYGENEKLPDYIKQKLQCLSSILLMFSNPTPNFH
# Assay: PLK4 NanoBRET target engagement assay
# Assay type: binding
# Conditions: HEK293 T cells transfected with PLK4 NanoLuc fusion vector; K-5 tracer; 2 hrs incubation
# Description: To determine the affinity of Compounds described herein in the PLK4 NanoBRET target engagement assay, HEK293 T cells (ATCC Product Number CRL-3216) are first transfected with the PLK4 NanoLuc fusion vector DNA and Transfection carrier DNA using the Fugene HD Transfection reagent in Opti-MEM No Phenol Red buffer. After an overnight incubation in a 37° C./5% CO2 incubator, the transfected HEK293 T cells are trypsinized, counted, and resuspended in Opti-MEM No Phenol Red buffer at a concentration of 200000 cells/mL. White 96-well plates are then plated with 85 μL of cells (17000 cells/well) to which 5 μL of the 20×K-5 tracer solution diluted in tracer dilution buffer is added. Finally, 10 μL of the 10× compounds are added and the plates and then incubated in a 37° C./5% CO2 incubator for 2 hrs. After the incubation, a 50 uL 3× solution of the substrate/inhibitor mix is added to the cells. The plate is then transferred in the Envision plate reader where the Acceptor emission (610 nm) and the Donor emission (450 nm) are measured.
# The IC50 of compounds is determined as follows: • 1. The ratio between the Acceptor emission (610 nm)/Donor emission (450 nm) is calculated. • 2. This ratio is then multiplied by 1000 to obtain the mBRET units (multiplying by 1000 is an arbitrary step that simply makes the data easier to interpret; it has no impact on the data set itself) • 3. The mBRET units are then used in Scigilian Analyze software (https://analyze.scigilian.io) to determine the IC50 value using a 4-parameter fit analysis.
row,SMILES,IC50
1,"Cc1cc(Nc2nc(N(C)c3ccc(S(C)(=O)=O)cc3F)cc(-c3cnn(C)c3)c2C2CC2)n[nH]1 [Compound 20, 3-cyclopropyl-N^6-(2-fluoro-4-(methylsulfonyl)phenyl)-N^6-methyl-N^2-(5-methyl-1H-pyrazol-3-yl)-4-(1-methyl-1H-pyrazol-4-yl)pyridine-2,6-diamine]",69 nM
2,COc1cc(Nc2nc(N(C)c3c(F)cc(S(C)(=O)=O)cc3F)nc(-c3cnn(C)c3)c2C2CC2)n[nH]1 [Compound 292],24 nM
3,COc1c(Nc2cc(C)[nH]n2)nc(N(C)c2ccc(C#N)cc2F)nc1-c1cnn(C)c1 [Compound 63],280 nM
4,Cc1cc(Nc2nc(N(C)c3c(F)cc(S(C)(=O)=O)cc3F)nc(-c3cnn(C4CS(=O)(=O)C4)c3)c2C2CC2)n[nH]1 [Compound 186],17 nM
5,COc1c(Nc2cc(C)[nH]n2)nc(N(C)c2ccc(S(=O)(=O)C(C)C)cc2)nc1-c1cnn(C)c1 [Compound 87],160 nM
6,COc1c(Nc2cc(C)[nH]n2)nc(N(C)c2ccc(CS(C)(=O)=O)cc2)nc1-c1cnn(C)c1 [Compound 47],2300 nM
7,Cc1cc(Nc2nc(N(C)c3c(F)cc(S(C)(=O)=O)cc3F)nc(-c3cnn(C)c3C(=O)N3CC(F)(F)C3)c2C2CC2)n[nH]1 [Compound 264],25 nM
8,Cc1cc(Nc2nc(N(C)c3c(F)cc(B(O)O)cc3F)nc(-c3cn(C)cn3)c2C2CC2)n[nH]1 [Compound 351],52 nM
9,CCS(=O)(=O)c1ccc(N(C)c2nc(Nc3cc(C)[nH]n3)c(OC)c(-c3cnn(C)c3)n2)cc1 [Compound 70],170 nM
10,COc1c(Nc2cc(C)[nH]n2)nc(N(C)c2ccc(CN3CCOC3=O)cc2)nc1-c1cnn(C)c1 [Compound 46],110 nM
11,Cc1cc(Nc2nc(N(C)c3c(F)cc(S(C)(=O)=O)cc3F)nc(-c3cnn(C)c3C(=O)O)c2C2CC2)n[nH]1 [Compound 289],660 nM
12,COc1c(Nc2cc(C)[nH]n2)nc(N(C)c2ccc(-c3ccnn3C)cc2)nc1-c1cnn(C)c1 [Compound 59],280 nM
13,Cc1cc(Nc2nc(N(C)c3c(F)cc(S(C)(=O)=O)cc3F)nc(N3CCN(C)C(=O)C3)c2C2CC2)n[nH]1 [Compound 184],33 nM
14,Cc1cc(Nc2nc(N(C)c3c(F)cc(C(=O)N(C)C)cc3F)nc(-c3cn(C)cn3)c2C2CC2)n[nH]1 [Compound 355],190 nM
15,Cc1cc(Nc2nc(N(C)c3c(F)cc(Cl)cc3F)nc(-c3cn(C)cn3)c2C2CC2)n[nH]1 [Compound 337],62 nM
16,COCCn1ncc(-c2nc(N(C)c3cc(F)c(S(C)(=O)=O)cc3F)nc(Nc3cc(C)[nH]n3)c2C2CC2)c1C [Compound 222],15 nM
17,Cc1cc(Nc2nc(N(C)c3c(F)cc(S(C)(=O)=O)cc3F)nc(N3CCc4c(ncn4C)C3)c2C2CC2)n[nH]1 [Compound 269],14 nM
18,CN(c1nc(Nc2cc(C(F)(F)F)[nH]n2)c(C2CC2)c(-c2cnn(C)c2)n1)c1c(F)cc(S(C)(=O)=O)cc1F [Compound 278],60 nM
19,Cc1cc(Nc2nc(N(C)c3ccc(S(C)(=O)=O)cc3F)nc(-c3cnn(C)c3)c2C)n[nH]1 [Compound 42],14 nM
20,Cc1cc(Nc2nc(N(C)c3c(F)cc(S(C)(=O)=O)cc3F)nc(-c3cccnn3)c2C2CC2)n[nH]1 [Compound 146],21 nM
21,COc1c(Nc2cc(C)[nH]n2)nc(N(C)c2ccc(S(=O)(=O)C(C)(C)C)cc2)nc1-c1cnn(C)c1 [Compound 86],120 nM
22,CCCS(=O)(=O)c1ccc(N(C)c2nc(Nc3cc(C)[nH]n3)c(OC)c(-c3cnn(C)c3)n2)cc1 [Compound 51],220 nM
23,COc1c(Nc2cc(C)[nH]n2)nc(N(C)c2ccc(-c3nccs3)cc2)nc1-c1cnn(C)c1 [Compound 80],910 nM
24,COC(=O)CN(c1nc(Nc2cc(C)[nH]n2)c(OC)c(-c2cnn(C)c2)n1)c1ccc(S(C)(=O)=O)cc1F [Compound 90],370 nM
25,Cc1cc(Nc2nc(N(C)c3c(F)cc(C(N)=O)cc3F)nc(-c3cn(C)cn3)c2C2CC2)n[nH]1 [Compound 354],17 nM
26,COc1c(Nc2cc(C)[nH]n2)nc(Sc2ccc(S(C)(=O)=O)cc2F)c(N)c1-c1cnn(C)c1 [Compound 102],840 nM
27,Cc1cc(Nc2nc(N(C)c3cc(F)c(S(C)(=O)=O)cc3F)nc(-c3cn4c(n3)CCC4)c2C2CC2)n[nH]1 [Compound 197],24 nM
28,Cc1cc(Nc2nc(N(C)c3c(F)cc(S(C)(=O)=O)cc3F)nc(-c3cn4c(n3)CNCC4)c2C2CC2)n[nH]1 [Compound 211],40 nM
29,COc1c(Nc2cc(C)[nH]n2)nc(Sc2ccc(S(C)(=O)=O)cc2F)c(F)c1-c1cnn(C)c1 [Compound 95],170 nM
30,COc1c(Nc2cc(C)[nH]n2)nc(Sc2ccc(S(C)(=O)=O)cc2F)c(N(C)C)c1-c1cnn(C)c1 [Compound 97],1200 nM

# These reach a lower IC50. Values come first.
row,IC50,SMILES
1,8 nM,COCCn1cc(-c2nc(N(C)c3c(F)cc(S(C)(=O)=O)cc3F)nc(Nc3cc(C)[nH]n3)c2C2CC2)nc1C [Compound 188]
2,4 nM,Cc1cc(Nc2nc(N(C)c3c(F)cc(S(C)(=O)=O)cc3F)nc(-c3ccn(CCO)n3)c2C2CC2)n[nH]1 [Compound 169]
3,13 nM,Cc1cc(Nc2nc(N(C)c3c(F)cc(S(C)(=O)=O)cc3F)nc(-c3cnc4n3CCC4)c2C2CC2)n[nH]1 [Compound 183]
4,2 nM,COCc1c(-c2nc(N(C)c3c(F)cc(S(C)(=O)=O)cc3F)nc(Nc3cc(C)[nH]n3)c2C2CC2)cnn1C [Compound 249]
5,8 nM,Cc1cc(Nc2nc(N(C)c3cc(F)c(S(C)(=O)=O)cc3F)nc(-c3cn4c(n3)CCOC4)c2C2CC2)n[nH]1 [Compound 210]
6,11 nM,Cc1cc(Nc2nc(N(C)c3c(F)cc(S(C)(=O)=O)cc3F)nc(-c3cnn(C)c3C(=O)N(C)C3CC3)c2C2CC2)n[nH]1 [Compound 333]
7,7 nM,Cc1cc(Nc2nc(N(C)c3c(F)cc(S(C)(=O)=O)cc3F)nc(-c3cncn3C)c2C2CC2)n[nH]1 [Compound 134]
8,2 nM,COCCn1cc(-c2nc(N(C)c3c(F)cc(S(C)(=O)=O)cc3F)nc(Nc3cc(C)[nH]n3)c2C2CC2)c(C)n1 [Compound 160]
9,8 nM,Cc1cc(Nc2nc(N(C)c3c(F)cc(S(C)(=O)=O)cc3F)nc(-c3cnn(CC(C)(C)O)c3C)c2C2CC2)n[nH]1 [Compound 336]
10,6 nM,Cc1cc(Nc2nc(N(C)c3c(F)cc(S(C)(=O)=O)cc3F)nc(N3CCc4ncn(C)c4C3)c2C2CC2)n[nH]1 [Compound 282]
11,6 nM,Cc1cc(Nc2nc(N(C)c3c(F)cc(S(C)(=O)=O)cc3F)nc(-c3cc[nH]n3)c2C2CC2)n[nH]1 [Compound 106]
12,7 nM,"Cc1cc(Nc2nc(N(C)c3cc(F)c(S(C)(=O)=O)cc3F)nc(-c3cn(C)cn3)c2C2CC2)n[nH]1 [Compound 125, 5-cyclopropyl-N^2-(2,5-difluoro-4-(methylsulfonyl)phenyl)-N^2-methyl-6-(1-methyl-1H-imidazol-4-yl)-N^4-(5-methyl-1H-pyrazol-3-yl)pyrimidine-2,4-diamine]"
13,4 nM,Cc1cc(Nc2nc(N(C)c3c(F)cc(S(C)(=O)=O)cc3F)nc(-c3cnn([C@H]4C[C@@H](O)C4)c3)c2C2CC2)n[nH]1 [Compound 254]
14,10 nM,Cc1cc(Nc2nc(N(C)c3c(F)cc(S(C)(=O)=O)c(C)c3F)nc(-c3cnn(C)c3)c2C2CC2)n[nH]1 [Compound 114]
15,10 nM,COC(C)c1nc(-c2nc(N(C)c3c(F)cc(S(C)(=O)=O)cc3F)nc(Nc3cc(C)[nH]n3)c2C2CC2)cn1C (stereo not shown) [Compound 244]
16,12 nM,Cc1cc(Nc2nc(N(C)c3c(F)cc(S(C)(=O)=O)cc3F)nc(-c3cn(C(F)F)nc3C)c2C2CC2)n[nH]1 [Compound 143]
